# From patent EP2787958B1, “CHELIDONIUM MAJUS EXTRACTS AND THEIR USE IN THE TREATMENT OF SKIN DISORDERS AND PROMOTION OF SKIN REGENERATION” (priority 2011, dated 2013)
# Where two headings read alike, the source gives them in different places.
# Legend:
# interleukin 1β (IL-1β) = test: Inflammatory cytokines in cell supernatant (Mosaic ELISA microarray): IL-1β; assay type: cell-based, Human; conditions: for IL-1β ng/(ml* No. of cells from photo) ± SD: 24 hours; for IL-1β production (effect in words): 1-10 µM
# interleukin 6 (IL-6) = test: Inflammatory cytokines in cell supernatant (Mosaic ELISA microarray): IL-6; assay type: cell-based, Human; conditions: for IL-6 ng/(ml* No. of cells from photo) ± SD: 24 hours; for IL-6 production (effect in words): 1-10 µM
# HDF cells [1] = test: Evaluation of cell morphology (Sirius Red stained cells, microscopy); assay type: cell-based, Human
# Protocol: Their morphology, colour and shape have been evaluated by using the ImageJ software program.
# The results of the effects on cell morphology, produced by the treatment with the test compounds for 24 hours at the concentrations specified, in HDF cells stained for collagen with PSR are shown in Figures 4a-d, 5a-d and 6a-f. These Figures allow evaluating cell morphology through light microscopy observation at magnifications of 100x, 200x and 400x for HDF cells cultured under standard growth conditions, in the presence of 100 µM H2O2 and in the presence of 34 ng/ml TGF-β1.
# HDF cells [2] = test: Summary of uses and toxic effects deduced from the cell assays (Table 1); assay type: cell-based, Human
# In short: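 HDF cells exposed to test substances at a given dosage for 24 h; uses and toxicity inferred from free-radical scavenging, mitochondrial dehydrogenase activity, IL-1β/IL-6 production (basal or induced by 100 µM H2O2), proliferation under standard growth conditions, and senescence-like morphology.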
# [3] = system: Human dermal fibroblasts (HDF); test: Mitochondrial dehydrogenase activity (WST-1 formazan assay) in HDF cells; conditions: for activity at 1 µM / activity at 10 µM: Homo sapiens, Fibroblast, read-out: % mitochondrial dehydrogenase activity ± SD; for Revitalizing agent: 24 hours
# Protocol: Human dermal fibroblasts were used for assay at the 3rd T75 passage.
# Mitochondrial dehydrogenase activity was measured in HDF, HEK and HUVEC cells by means of the formazan assay, using the WST-1 kit from Roche Diagnostic in accordance with the supplier's instructions. Briefly: the reagent was added (10 µl per well), the incubation was carried out for a further 2 hours or 4 hours, and, at the end of this time, the absorbance was read for 1 s at a wavelength of 450 nm in a Perkin Elmer Victor 2 Wallac microplate reader.
# The activity percentage (% mitochondrial dehydrogenase activity) is defined as: % mitochondrial dehydrogenase activity = ((absorbance of treated cells - absorbance of blank) / (absorbance of control - absorbance of blank)) x 100.
# The tests were performed with observations after 18 hours, seeding 8,000 cells per well, and after 42 hours, seeding 2,000 cells per well. Furthermore, in order to better analyze the dose/response curves for dihydroberberine, canadine and stylopine, curves were collected at 11 concentrations by seeding 2,000 cells per well with 46 hours incubation.
# Dose/response curves are plotted at 6 concentrations. The tests were performed with observations after 24 hours, seeding 8,000 cells per well.
# HDF cells [4] = test: Evaluation of cell proliferation (counting of Sirius Red stained cells in photographs); conditions: for No. of cells from photo ± SD: 24 hours
# [5] = Anti-radical activity (decay of the DPPH radical); assay type: biochemical; conditions: for Anti-radical (skin protective): 24 hours
# In short: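 Test substance in ethanol mixed 1:1 with 200 µM DPPH (stock concentrations), in quadruplicate. Absorbance read at 530 nm after 30 min, with vitamin C and ethanol-only controls. IC50 from variable-slope Hill regression of dose-activity curves.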
# [6] = system: collagen produced by HDF cells; test: Quantity of collagen produced by the cells (elution of Sirius Red); conditions: 1-10 µM (1 µM and 10 µM)
# [7] = Dose 1 µm (coptisine: 1 pm [sic]), 24 hours
# [8] = Dose 1 µm (coptisine: 1 pm [sic])
smiles,measurement,setting,value
C[n+]1cc2c3c(ccc2c2ccc4cc5c(cc4c21)OCO5)OCO3 [sanguinarine],IL-1β ng/(ml* No. of cells from photo) ± SD,"interleukin 1β (IL-1β); 1 µM, 34 ng/ml TGF-β1",297±13 ng/(ml* No. of cells from photo)
same,IL-1β ng/(ml* No. of cells from photo) ± SD,"interleukin 1β (IL-1β); 1 µM, 100 µM H2O2",253±9 ng/(ml* No. of cells from photo)
same,IL-1β ng/(ml* No. of cells from photo) ± SD,"interleukin 1β (IL-1β); 1 µM, Standard conditions",75±1 ng/(ml* No. of cells from photo)
same,IL-1β ng/(ml* No. of cells from photo) ± SD,"interleukin 1β (IL-1β); 10 µM, 34 ng/ml TGF-β1",16400±5000 ng/(ml* No. of cells from photo)
same,IL-1β ng/(ml* No. of cells from photo) ± SD,"interleukin 1β (IL-1β); 10 µM, 100 µM H2O2",18400±2800 ng/(ml* No. of cells from photo)
same,IL-1β ng/(ml* No. of cells from photo) ± SD,"interleukin 1β (IL-1β); 10 µM, Standard conditions",4535±81 ng/(ml* No. of cells from photo)
same,IL-6 ng/(ml* No. of cells from photo) ± SD,"interleukin 6 (IL-6); 1 µM, 34 ng/ml TGF-β1",2167±279 ng/(ml* No. of cells from photo)
same,IL-6 ng/(ml* No. of cells from photo) ± SD,"interleukin 6 (IL-6); 1 µM, 100 µM H2O2",2374±264 ng/(ml* No. of cells from photo)
same,IL-6 ng/(ml* No. of cells from photo) ± SD,"interleukin 6 (IL-6); 1 µM, Standard conditions",470±32 ng/(ml* No. of cells from photo)
same,IL-6 ng/(ml* No. of cells from photo) ± SD,"interleukin 6 (IL-6); 10 µM, 34 ng/ml TGF-β1",56600±9000 ng/(ml* No. of cells from photo)
same,IL-6 ng/(ml* No. of cells from photo) ± SD,"interleukin 6 (IL-6); 10 µM, 100 µM H2O2",66300±5000 ng/(ml* No. of cells from photo)
same,IL-6 ng/(ml* No. of cells from photo) ± SD,"interleukin 6 (IL-6); 10 µM, Standard conditions",17786±27 ng/(ml* No. of cells from photo)
same,cell morphology,HDF cells [1]; 1 µM,senescent morphology
same,cell morphology,HDF cells [1]; 10 µM,complete absence of cells
same,Cytotoxic,HDF cells [2]; [7],"Yes (senescent morph., ↓dehydrogenase)"
same,Irritant,HDF cells [2]; [7],"Yes (↑IL-6, ↑IL-1β)"
same,Cytotoxic,"HDF cells [2]; Dose 10 µm, 24 hours","Yes (cell death, ↓dehydrogenase)"
same,Irritant,"HDF cells [2]; Dose 10 µm, 24 hours","Yes (↑IL-6, ↑IL-1β)"
same,concentrations at which toxic (cytotoxic and irritant) effects are shown,HDF cells [2]; exposure for 24 hours,greater than or equal to 1 µM
same,concentrations above which marked inhibition of mitochondrial dehydrogenase activity is caused,[3]; 18 h and 42 h,higher than 1 µM
same,activity at 1 µM,[3]; 18 h,83.3 ± 6.83%
same,activity at 10 µM,[3]; 18 h,-1.57 ± 1.65%
same,activity at 1 µM,[3]; 42 h,-2.8 ± 3.67%
same,activity at 10 µM,[3]; 42 h,-16.6 ± 2.55%
same,No. of cells from photo ± SD,"HDF cells [4]; 1 µM, 34 ng/ml TGF-β1",86±7
same,No. of cells from photo ± SD,"HDF cells [4]; 1 µM, 100 µM H2O2",110±18
same,No. of cells from photo ± SD,"HDF cells [4]; 1 µM, Standard conditions",30±9
same,No. of cells from photo ± SD,"HDF cells [4]; 10 µM, 34 ng/ml TGF-β1",1±0
same,No. of cells from photo ± SD,"HDF cells [4]; 10 µM, 100 µM H2O2",1±0
same,No. of cells from photo ± SD,"HDF cells [4]; 10 µM, Standard conditions",1±0
c1cc2c(c3c1C[C@H]1c4cc5c(cc4CCN1C3)OCO5)OCO2 [stylopine],IL-1β ng/(ml* No. of cells from photo) ± SD,"interleukin 1β (IL-1β); 1 µM, 34 ng/ml TGF-β1",97±3 ng/(ml* No. of cells from photo)
same,IL-1β ng/(ml* No. of cells from photo) ± SD,"interleukin 1β (IL-1β); 1 µM, 100 µM H2O2",100±4 ng/(ml* No. of cells from photo)
same,IL-1β ng/(ml* No. of cells from photo) ± SD,"interleukin 1β (IL-1β); 1 µM, Standard conditions",159±10 ng/(ml* No. of cells from photo)
same,IL-1β ng/(ml* No. of cells from photo) ± SD,"interleukin 1β (IL-1β); 10 µM, 34 ng/ml TGF-β1",109±14 ng/(ml* No. of cells from photo)
same,IL-1β ng/(ml* No. of cells from photo) ± SD,"interleukin 1β (IL-1β); 10 µM, 100 µM H2O2",88±10 ng/(ml* No. of cells from photo)
same,IL-1β ng/(ml* No. of cells from photo) ± SD,"interleukin 1β (IL-1β); 10 µM, Standard conditions",186±7 ng/(ml* No. of cells from photo)
same,IL-1β production (effect in words),interleukin 1β (IL-1β); 34 ng/ml TGF-β1,antagonizes the production of IL-1β
same,IL-1β production (effect in words),interleukin 1β (IL-1β); 100 µM H2O2,antagonizes the production of IL-1β
same,IL-1β production (effect in words),interleukin 1β (IL-1β); standard conditions,inhibits the production of IL-1β
same,IL-6 ng/(ml* No. of cells from photo) ± SD,"interleukin 6 (IL-6); 1 µM, 34 ng/ml TGF-β1",447±8 ng/(ml* No. of cells from photo)
same,IL-6 ng/(ml* No. of cells from photo) ± SD,"interleukin 6 (IL-6); 1 µM, 100 µM H2O2",583±25 ng/(ml* No. of cells from photo)
same,IL-6 ng/(ml* No. of cells from photo) ± SD,"interleukin 6 (IL-6); 1 µM, Standard conditions",868±62 ng/(ml* No. of cells from photo)
same,IL-6 ng/(ml* No. of cells from photo) ± SD,"interleukin 6 (IL-6); 10 µM, 34 ng/ml TGF-β1",528±33 ng/(ml* No. of cells from photo)
same,IL-6 ng/(ml* No. of cells from photo) ± SD,"interleukin 6 (IL-6); 10 µM, 100 µM H2O2",449±2 ng/(ml* No. of cells from photo)
same,IL-6 ng/(ml* No. of cells from photo) ± SD,"interleukin 6 (IL-6); 10 µM, Standard conditions",961±38 ng/(ml* No. of cells from photo)
same,IL-6 production (effect in words),interleukin 6 (IL-6); 34 ng/ml TGF-β1,antagonizes the production of IL-6
same,IL-6 production (effect in words),interleukin 6 (IL-6); 100 µM H2O2,antagonizes the production of IL-6
same,IL-6 production (effect in words),interleukin 6 (IL-6); standard conditions,inhibits the production of IL-6
same,% DPPH activity,"[5]; 1 mM, 30 minutes",113%
same,Anti-radical (skin protective),[5]; [8],No
same,Anti-radical (skin protective),[5]; Dose 10 µm,No
same,Cytotoxic,HDF cells [2],No
same,Irritant,HDF cells [2],No
same,"Anti-fibrotic (prevention of scar formation, also from acne)",HDF cells [2]; [7],"Yes (↓collagen, ↓IL-6, ↓IL-1β)"
same,"Cytoprotective (antioxidant, anti-inflammatory and anti-ageing; useful also in the treatment of acne)",HDF cells [2]; [7],"Yes (↓IL-6, ↓IL-1β)"
same,Wound-healing,HDF cells [2]; [7],Yes (↑profil)
same,"Anti-fibrotic (prevention of scar formation, also from acne)","HDF cells [2]; Dose 10 µm, 24 hours","Yes (↓collagen, ↓IL-6. ↓IL-1β)"
same,"Cytoprotective (antioxidant, anti-inflammatory and anti-ageing; useful also in the treatment of acne)","HDF cells [2]; Dose 10 µm, 24 hours","Yes (↓IL-6, ↓IL-1β)"
same,Cytotoxic,"HDF cells [2]; Dose 10 µm, 24 hours",No
same,Irritant,"HDF cells [2]; Dose 10 µm, 24 hours",No
same,Wound-healing,"HDF cells [2]; Dose 10 µm, 24 hours",No
same,concentrations at which no toxic (cytotoxic and irritant) effects are shown,HDF cells [2]; exposure for 24 hours,less than or equal to 10 µM
same,collagen production (effect in words),[6]; 34 ng/ml TGF-β1,antagonizes the stimulation of collagen induced by 34 ng/ml TGF-β1
same,collagen production (effect in words),[6]; 100 µM H2O2,tendency to inhibit collagen production
same,concentrations below which no significant effects on mitochondrial dehydrogenase activity are shown,[3],below 1 µM
same,mitochondrial dehydrogenase activity (effect in words),"[3]; 10 µM, exposure time 42 h",increased with respect to the control
same,mitochondrial dehydrogenase activity (effect in words),[3]; 100 µM,less marked stimulation of mitochondrial dehydrogenase activity
same,Revitalizing agent,[3]; [8],Yes**
same,Revitalizing agent,[3]; Dose 10 µm,Yes
same,activity at 1 µM,[3]; 18 h,105 ± 9.5%
same,activity at 10 µM,[3]; 18 h,107 ± 3%
same,activity at 1 µM,[3]; 42 h,100 ± 15.8%
same,activity at 10 µM,[3]; 42 h,151 ± 12.8%
same,activity at 1 µM,[3]; 46 h,95.7%
same,activity at 10 µM,[3]; 46 h,138 ± 23.9%
same,mitochondrial dehydrogenase activity (effect in words),"[3]; between 1 and 100 µM, exposure time 18 h",non-significant tendency to stimulate mitochondrial dehydrogenase activity in a dose-dependent manner
same,mitochondrial dehydrogenase activity (effect in words),"[3]; fibroblast cells, higher doses",inhibit mitochondrial dehydrogenase activity
same,mitochondrial dehydrogenase activity (effect in words),"[3]; fibroblast cells, low dosage",stimulate mitochondrial dehydrogenase activity
same,cell proliferation (effect in words),HDF cells [4]; 1 µM,tendency to stimulate cell proliferation
same,No. of cells from photo ± SD,"HDF cells [4]; 1 µM, 34 ng/ml TGF-β1",237±19
same,No. of cells from photo ± SD,"HDF cells [4]; 1 µM, 100 µM H2O2",240±12
same,No. of cells from photo ± SD,"HDF cells [4]; 1 µM, Standard conditions",234± 7
same,No. of cells from photo ± SD,"HDF cells [4]; 10 µM, 34 ng/ml TGF-β1",210±17
same,No. of cells from photo ± SD,"HDF cells [4]; 10 µM, 100 µM H2O2",249±8
same,No. of cells from photo ± SD,"HDF cells [4]; 10 µM, Standard conditions",183±12
